# The supplement of paper PMC11208160
# Assay: recombinant UMI read abundance after kanamycin selection (control-corrected) (log10(CPM+1)); higher = more efficient recombination; extreme values may be limits of the assay; sequences stand for … in AGTGCAGAGAAAATCGGCCAGTTTTCTCTGCCTGCAGTCCGCATGCCGTGGGACCCCTTGGGTTCTAACCTGTTGCCTAGATTTATGCAGCGGACTGCCTTTCTCCCAAAGTGATAAACCGG…AGGTTGGTTTCACT; site = the 11-nt donor
# Procedure, shortened: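 In Escherichia coli, a pool of donor and donor-binding-loop pairs, each with a 12-nt UMI, was tested for the IS621 bridge recombinase. Plating was on IPTG (0.07 mM) plus kanamycin, or without selection, in two replicates. Recombinant UMIs were amplified by PCR across the donor–target junction and sequenced, and counts were reported as log10(CPM+1) after averaging and control-derived scaling.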
# 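Further: IS621 bridge recombinase in Escherichia coli cells against a fixed T5 target plasmid.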
row,Sequence,recombinant UMI read abundance (log10)
1,GACAGACCATGGACCGGTTTTCCCGGTAATCCGTATTTGGT (site GACAGACCTAC),0.0145
2,GACAGACCATGGACCGGTTTTCCCGGTAATCCGTATTTGGT (site GACATACCTAC),0
3,GACATACCATGGACCGGTTTTCCCGGTAATCCGTATTTGGC (site GACATACCTGC),0
4,GACCCATCATGGACCGGTTTTCCCGGTAATCCGTATTTGGA (site GACCCATCTTC),1.26
5,GACCGGGCATGGACCGGTTTTCCCGGTAATCCGTATTTGAT (site GACCGGGCTAT),0.662
6,GACCGTCCATGGACCGGTTTTCCCGGTAATCCGTATTTGAT (site AACCGTCCTAT),0
7,GACCGTCCATGGACCGGTTTTCCCGGTAATCCGTATTTGAT (site CACCGTCCTAT),0.00334
8,GACCGTCCATGGACCGGTTTTCCCGGTAATCCGTATTTGAT (site GACCGTCCTAT),0.0192
9,GACCGTCCATGGACCGGTTTTCCCGGTAATCCGTATTTGAT (site TACCGTCCTAT),0.0517
10,GACCTCACATGGACCGGTTTTCCCGGTAATCCGTATTTGTA (site GACCTCACTTA),0.0239
11,GACGAAACATGGACCGGTTTTCCCGGTAATCCGTATTTGTA (site GACGAAACTTA),2.54
12,GACGAAGCATGGACCGGTTTTCCCGGTAATCCGTATTTGCT (site GACGAAGCTAG),2.11
13,GACGCCACATGGACCGGTTTTCCCGGTAATCCGTATTTGAA (site GACGCCACTTT),0.827
14,GACGCCGCATGGACCGGTTTTCCCGGTAATCCGTATTTGAG (site GACGCCGCTCT),0.349
15,GACGCTACATGGACCGGTTTTCCCGGTAATCCGTATTTGCA (site GACGCTACTTG),1.36
16,GACTATCCATGGACCGGTTTTCCCGGTAATCCGTATTTGCT (site GAATATCCTAG),0.00525
17,GACTATCCATGGACCGGTTTTCCCGGTAATCCGTATTTGCT (site GACTATCCTAG),1.29
18,GACTATCCATGGACCGGTTTTCCCGGTAATCCGTATTTGCT (site GAGTATCCTAG),0
19,GACTATCCATGGACCGGTTTTCCCGGTAATCCGTATTTGCT (site GATTATCCTAG),0

row,Sequence,recombinant UMI read abundance (log10)
1,GACTCACCATGGACCGGTTTTCCCGGTAATCCGTATTTGAC (site GACTCACCTGT),0
2,GACTCCCCATGGACCGGTTTTCCCGGTAATCCGTATTTGCA (site GACTCCCCTTG),1.3
3,GACTCCTCATGGACCGGTTTTCCCGGTAATCCGTATTTGCC (site AACTCCTCTGG),1.71
4,GACTCCTCATGGACCGGTTTTCCCGGTAATCCGTATTTGCC (site CACTCCTCTGG),1.86
5,GACTCCTCATGGACCGGTTTTCCCGGTAATCCGTATTTGCC (site GACTCCTCTGG),2.02
6,GACTCCTCATGGACCGGTTTTCCCGGTAATCCGTATTTGCC (site TACTCCTCTGG),2.07
7,GACTTAGCATGGACCGGTTTTCCCGGTAATCCGTATTTGTG (site GACTTAGCTCA),0.251
8,GACTTGACATGGACCGGTTTTCCCGGTAATCCGTATTTGCT (site AACTTGACTAG),1.3
9,GACTTGACATGGACCGGTTTTCCCGGTAATCCGTATTTGCT (site CACTTGACTAG),0.596
10,GACTTGACATGGACCGGTTTTCCCGGTAATCCGTATTTGCT (site GACTTGACTAG),0.984
11,GACTTGACATGGACCGGTTTTCCCGGTAATCCGTATTTGCT (site TACTTGACTAG),0.923
12,GACTTGGCATGGACCGGTTTTCCCGGTAATCCGTATTTGGA (site AACTTGGCTTC),0.227
13,GACTTGGCATGGACCGGTTTTCCCGGTAATCCGTATTTGGA (site CACTTGGCTTC),0.579
14,GACTTGGCATGGACCGGTTTTCCCGGTAATCCGTATTTGGA (site GACTTGGCTTC),0.654
15,GACTTGGCATGGACCGGTTTTCCCGGTAATCCGTATTTGGA (site TACTTGGCTTC),0.28
16,GACTTTCCATGGACCGGTTTTCCCGGTAATCCGTATTTGAC (site GACTTTCCTGT),0.0655
17,GAGAATGCATGGACCGGTTTTCCCGGTAATCCGTATTTGCT (site GAGAATGCTAG),2.16
18,GAGACGCCATGGACCGGTTTTCCCGGTAATCCGTATTTGAT (site GAGACGCCTAT),0.566
19,GAGATTCCATGGACCGGTTTTCCCGGTAATCCGTATTTGGG (site GAGATTCCTCC),0.0141

row,Sequence,recombinant UMI read abundance (log10)
1,GAGCACACATGGACCGGTTTTCCCGGTAATCCGTATTTGAT (site GAGCACACTAT),1.9
2,GAGCACACATGGACCGGTTTTCCCGGTAATCCGTATTTGAT (site GAGCCCACTAT),0.0144
3,GAGCACACATGGACCGGTTTTCCCGGTAATCCGTATTTGAT (site GAGCGCACTAT),0.00425
4,GAGCACACATGGACCGGTTTTCCCGGTAATCCGTATTTGAT (site GAGCTCACTAT),0
5,GAGCCGGCATGGACCGGTTTTCCCGGTAATCCGTATTTGAA (site GAGCCGGCTTT),0.241
6,GAGCCGTCATGGACCGGTTTTCCCGGTAATCCGTATTTGAT (site GAGCCGTCTAT),1.32
7,GAGCCTCCATGGACCGGTTTTCCCGGTAATCCGTATTTGAG (site GAGCCTCCTCT),0.0215
8,GAGCGCTCATGGACCGGTTTTCCCGGTAATCCGTATTTGCG (site GAGCGCTCTCG),2.26
9,GAGCGGACATGGACCGGTTTTCCCGGTAATCCGTATTTGGC (site GAGCGGACTGC),2.85
10,GAGCTACCATGGACCGGTTTTCCCGGTAATCCGTATTTGGC (site GAGCTACCTGC),0
11,GAGCTAGCATGGACCGGTTTTCCCGGTAATCCGTATTTGAA (site AAGCTAGCTTT),1.5
12,GAGCTAGCATGGACCGGTTTTCCCGGTAATCCGTATTTGAA (site CAGCTAGCTTT),0.896
13,GAGCTAGCATGGACCGGTTTTCCCGGTAATCCGTATTTGAA (site GAGCTAGCTTT),2.14
14,GAGCTAGCATGGACCGGTTTTCCCGGTAATCCGTATTTGAA (site TAGCTAGCTTT),1.63
15,GAGCTCACATGGACCGGTTTTCCCGGTAATCCGTATTTGAA (site GAGCTCACTAT),0.839
16,GAGCTCACATGGACCGGTTTTCCCGGTAATCCGTATTTGAA (site GAGCTCACTCT),0.0248
17,GAGCTCACATGGACCGGTTTTCCCGGTAATCCGTATTTGAA (site GAGCTCACTGT),0.716
18,GAGCTCACATGGACCGGTTTTCCCGGTAATCCGTATTTGAA (site GAGCTCACTTT),1.43
19,GAGCTCACATGGACCGGTTTTCCCGGTAATCCGTATTTGAG (site GAGCTCACTAT),0.277
